Measurements as given in patent US20230019491A1, “PYRIMIDINE TBK/IKKe INHIBITOR COMPOUNDS AND USES THEREOF” (Merck Patent GmbH, priority 2017, published 2023).

What was measured:
[1] = target: T1, TBK1 (Homo sapiens, UniProt Q9UHD2); experiment: TBK biochemical assay; conditions: 10 point 1:4 dose response, 30 uM top concentration, 90 min at 25° C., LabChip EZ Reader II; read-out: TBK1_IC50
T1 sequence (Q9UHD2 1-729): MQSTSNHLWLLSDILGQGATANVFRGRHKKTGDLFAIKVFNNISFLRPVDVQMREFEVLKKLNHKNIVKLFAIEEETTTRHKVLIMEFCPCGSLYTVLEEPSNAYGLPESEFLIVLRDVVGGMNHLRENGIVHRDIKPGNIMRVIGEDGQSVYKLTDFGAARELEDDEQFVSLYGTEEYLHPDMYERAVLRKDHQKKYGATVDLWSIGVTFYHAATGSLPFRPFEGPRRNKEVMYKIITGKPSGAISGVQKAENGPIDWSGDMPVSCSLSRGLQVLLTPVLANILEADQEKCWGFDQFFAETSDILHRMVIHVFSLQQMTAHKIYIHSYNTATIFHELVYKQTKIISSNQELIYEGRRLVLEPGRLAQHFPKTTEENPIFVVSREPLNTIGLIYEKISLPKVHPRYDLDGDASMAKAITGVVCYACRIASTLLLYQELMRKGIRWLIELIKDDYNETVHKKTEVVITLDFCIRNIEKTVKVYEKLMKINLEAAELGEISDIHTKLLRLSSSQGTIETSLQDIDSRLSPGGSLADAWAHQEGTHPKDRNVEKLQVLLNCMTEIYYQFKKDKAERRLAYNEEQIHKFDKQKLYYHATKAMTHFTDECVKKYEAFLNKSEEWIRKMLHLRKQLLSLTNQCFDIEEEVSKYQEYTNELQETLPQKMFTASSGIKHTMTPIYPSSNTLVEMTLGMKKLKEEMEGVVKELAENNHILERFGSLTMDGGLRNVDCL
In short: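 Read-out was a Caliper LabChip mobility-shift assay, run after a 90-min, 25 °C reaction of TBK1 with substrate and compounds, quenched with stop buffer. Control wells received staurosporine at 10 uM final.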

[2] = target: T2, IKKε (Homo sapiens, UniProt Q14164); experiment: IKKε biochemical assay; conditions: 10 point 1:4 dose response, 30 uM top concentration, 90 min at 25° C., LabChip EZ Reader II; read-out: IKKε_IC50
T2 sequence (Q14164 1-716): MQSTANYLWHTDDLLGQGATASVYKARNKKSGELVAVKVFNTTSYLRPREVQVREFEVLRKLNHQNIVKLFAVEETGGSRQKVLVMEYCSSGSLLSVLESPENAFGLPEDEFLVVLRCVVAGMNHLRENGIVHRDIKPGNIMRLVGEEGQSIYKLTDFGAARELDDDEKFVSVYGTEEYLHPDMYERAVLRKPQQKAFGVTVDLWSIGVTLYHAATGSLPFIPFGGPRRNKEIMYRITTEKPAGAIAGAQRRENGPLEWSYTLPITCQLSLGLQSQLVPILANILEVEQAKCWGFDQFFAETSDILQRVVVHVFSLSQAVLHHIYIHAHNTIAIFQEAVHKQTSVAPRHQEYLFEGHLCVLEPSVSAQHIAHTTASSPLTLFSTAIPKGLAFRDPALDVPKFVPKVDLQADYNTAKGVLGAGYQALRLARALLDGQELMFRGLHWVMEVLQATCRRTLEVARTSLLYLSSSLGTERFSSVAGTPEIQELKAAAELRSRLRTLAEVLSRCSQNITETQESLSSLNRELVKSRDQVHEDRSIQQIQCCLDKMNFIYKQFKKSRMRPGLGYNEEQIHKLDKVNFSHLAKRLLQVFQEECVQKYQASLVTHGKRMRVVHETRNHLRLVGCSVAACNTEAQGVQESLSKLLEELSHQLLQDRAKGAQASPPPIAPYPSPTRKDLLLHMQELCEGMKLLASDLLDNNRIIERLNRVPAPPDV
In short: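 Mobility-shift LabChip read-out followed a 90 min, 25° C. reaction of IKKε with substrate and test compound, with DMSO held at 1% final. Reactions were ended with stop buffer. Wells with 10 uM final staurosporine defined complete inhibition, and DMSO-only wells the uninhibited level.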

IC50 [1]	IC50 [2]	Structure (SMILES)
< 100 nM	< 100 nM	N#Cc1cc(-c2ccnc(Nc3ccccc3)n2)ccc1OC1CCN(C(=O)[C@@H](O)CO)CC1(F)F (stereo partly drawn) [Example 210, 2-[1-((S)-2,3-Dihydroxy-propionyl)-3,3-difluoro-piperidin-4-yloxy]-5-(2-phenylamino-pyrimidin-4-yl)-benzonitrile]
< 100 nM	< 100 nM	COc1ccc(Nc2nccc(-c3ccc(OC4CCN(C(=O)[C@H](C)O)CC4(F)F)c(C#N)c3)n2)nc1OC (stereo partly drawn) [Example 211, 2-[3,3-Difluoro-1-((S)-2-hydroxy-propionyl)-piperidin-4-yloxy]-5-[2-(5,6-dimethoxy-pyridin-2-ylamino)-pyrimidin-4-yl]-benzonitrile]
< 100 nM	< 100 nM	C[C@H](O)C(=O)N1CCC(Oc2ccc(-c3ccnc(Nc4ccc(C5CCN(C6COC6)C5)cc4)n3)cc2C#N)C(F)(F)C1 (stereo partly drawn) [Example 213, 2-([3,3-difluoro-1-[(2S)-2-hydroxypropanoyl]piperidin-4-yl]oxy)-5-[2-([4-[1-(oxetan-3-yl)pyrrolidin-3-yl]phenyl]amino)pyrimidin-4-yl]benzonitrile]
< 100 nM	< 100 nM	C[C@@H](O)C(=O)N1CCC(Oc2ccc(-c3ccnc(Nc4ccc(C5CCN(C6COC6)C5)cc4)n3)cc2C#N)C(F)(F)C1 (stereo partly drawn) [Example 214, 2-([3,3-difluoro-1-[(2R)-2-hydroxypropanoyl]piperidin-4-yl]oxy)-5-[2-([4-[1-(oxetan-3-yl)pyrrolidin-3-yl]phenyl]amino)pyrimidin-4-yl]benzonitrile]
< 100 nM	< 100 nM	C[C@@H](O)C(=O)N1CCC(Oc2ccc(-c3ccnc(Nc4ccc(N5CCOCC5)cc4)n3)cc2C#N)C(F)(F)C1 (stereo partly drawn) [Example 215, 2-([3,3-difluoro-1-[(2R)-2-hydroxypropanoyl]piperidin-4-yl]oxy)-5-(2-[[4-(morpholin-4-yl)phenyl]amino]pyrimidin-4-yl)benzonitrile]
< 100 nM	< 100 nM	COc1cc(Nc2nccc(-c3ccc(OC4CCN(C(=O)[C@H](C)O)CC4(F)F)c(C#N)c3)n2)ccc1N1CCN(C2COC2)CC1 (stereo partly drawn) [Example 217, 2-([3,3-difluoro-1-[(2S)-2-hydroxypropanoyl]piperidin-4-yl]oxy)-5-[2-([3-methoxy-4-[4-(oxetan-3-yl)piperazin-1-yl]phenyl]amino)pyrimidin-4-yl]benzonitrile]
< 100 nM	< 100 nM	COc1cccc(Nc2nccc(-c3ccc(OC4CCN(C(=O)c5n[nH]c(C)n5)CC4)c(C#N)c3)n2)n1 [Example 218, 5-[2-[(6-methoxypyridin-2-yl)amino]pyrimidin-4-yl]-2-[[1-(5-methyl-1H-1,2,4-triazole-3-carbonyl)piperidin-4-yl]oxy]benzonitrile]
< 100 nM	< 100 nM	C[C@H](O)C(=O)N1CCC(Oc2ccc(-c3ccnc(Nc4ccccn4)n3)cc2C#N)C(F)(F)C1 (stereo partly drawn) [Example 219, 2-(3,3-difluoro-1-((S)-2-hydroxypropanoyl)piperidin-4-yloxy)-5-(2-(pyridin-2-ylamino)pyrimidin-4-yl)benzonitrile]
< 100 nM	< 100 nM	N#Cc1cc(-c2ccnc(Nc3ccccn3)n2)ccc1OC1CCN(C(=O)CO)CC1(F)F (centres unmarked) [Example 220, 2-[3,3-Difluoro-1-(2-hydroxy-acetyl)-piperidin-4-yloxy]-5-[2-(pyridin-2-ylamino)-pyrimidin-4-yl]-benzonitrile]
< 100 nM	< 100 nM	C[C@@H](O)C(=O)N1CCC(Oc2ccc(-c3ccnc(Nc4cccc(C5CCN(C6COC6)CC5)c4)n3)cc2C#N)C(F)(F)C1 (stereo partly drawn) [Example 225, 2-[3,3-Difluoro-1-((R)-2-hydroxy-propionyl)-piperidin-4-yloxy]-5-{2-[3-(1-oxetan-3-yl-piperidin-4-yl)-phenylamino]-pyrimidin-4-yl}-benzonitrile]

More lines, now with the values behind:

Structure (SMILES)	IC50 [1]	IC50 [2]
C[C@H](O)C(=O)N1CCC(Oc2ccc(-c3ccnc(Nc4ccc(C5CCN(C6COC6)CC5)cc4)n3)cc2C#N)C(F)(F)C1 (stereo partly drawn) [Example 212, 2-([3,3-difluoro-1-[(2S)-2-hydroxypropanoyl]piperidin-4-yl]oxy)-5-[2-([4-[1-(oxetan-3-yl)piperidin-4-yl]phenyl]amino)pyrimidin-4-yl]benzonitrile]	< 100 nM	< 100 nM
C[C@H](O)C(=O)N1CCC(Oc2ccc(-c3ccnc(Nc4ccc(N5CCOCC5)cc4)n3)cc2C#N)C(F)(F)C1 (stereo partly drawn) [Example 216, 2-([3,3-difluoro-1-[(2S)-2-hydroxypropanoyl]piperidin-4-yl]oxy)-5-(2-[[4-(morpholin-4-yl)phenyl]amino]pyrimidin-4-yl)benzonitrile]	< 100 nM	< 100 nM
C[C@@H](O)C(=O)N1CCC(Oc2ccc(-c3ccnc(Nc4ccccn4)n3)cc2C#N)C(F)(F)C1 (stereo partly drawn) [Example 221, 2-[3,3-Difluoro-1-((R)-2-hydroxy-propionyl)-piperidin-4-yloxy]-5-[2-(pyridin-2-ylamino)-pyrimidin-4-yl]-benzonitrile]	100 to 1000 nM	100 to 1000 nM
N#Cc1cc(-c2ccnc(Nc3cccc(C4CCN(C5COC5)CC4)c3)n2)ccc1OC1CCNCC1(F)F (centres unmarked) [Example 222, 2-(3,3-Difluoro-piperidin-4-yloxy)-5-{2-[3-(1-oxetan-3-yl-piperidin-4-yl)-phenylamino]-pyrimidin-4-yl}-benzonitrile]	< 100 nM	< 100 nM
N#Cc1cc(-c2ccnc(Nc3cccc(C4CCN(C5COC5)CC4)c3)n2)ccc1OC1CCN(C(=O)CO)CC1(F)F (centres unmarked) [Example 223, 2-[3,3-Difluoro-1-(2-hydroxy-acetyl)-piperidin-4-yloxy]-5-{2-[3-(1-oxetan-3-yl-piperidin-4-yl)-phenylamino]-pyrimidin-4-yl}-benzonitrile]	< 100 nM	< 100 nM
C[C@H](O)C(=O)N1CCC(Oc2ccc(-c3ccnc(Nc4cccc(C5CCN(C6COC6)CC5)c4)n3)cc2C#N)C(F)(F)C1 (stereo partly drawn) [Example 224, 2-[3,3-Difluoro-1-((S)-2-hydroxy-propionyl)-piperidin-4-yloxy]-5-{2-[3-(1-oxetan-3-yl-piperidin-4-yl)-phenylamino]-pyrimidin-4-yl}-benzonitrile]	< 100 nM	< 100 nM
C[C@@H](O)C(=O)N1CCC(Oc2ccc(-c3ccnc(Nc4ccc(C5CCN(C6COC6)CC5)cc4)n3)cc2C#N)C(F)(F)C1 (stereo partly drawn) [Example 226, 2-([33-difluoro-1-[(2R)-2-hydroxypropanoyl]piperidin-4-yl]oxy)-5-[2-([4-[1-(oxetan-3-yl)piperidin-4-yl]phenyl]amino)pyrimidin-4-yl]benzonitrile]	< 100 nM	< 100 nM
COc1cc(Nc2nccc(-c3ccc(OC4CCN(C(=O)[C@@H](C)O)CC4(F)F)c(C#N)c3)n2)ccc1C1CCN(C2COC2)CC1 (stereo partly drawn) [Example 227, 2-([3,3-difluoro-1-[(2R)-2-hydroxypropanoyl]piperidin-4-yl]oxy)-5-[2-([3-methoxy-4-[1-(oxetan-3-yl)piperidin-4-yl]phenyl]amino)pyrimidin-4-yl]benzonitrile]	< 100 nM	< 100 nM
COc1cc(N2CCN(C3COC3)CC2)ccc1Nc1nccc(-c2ccc(OC3CCN(C(=O)[C@H](C)O)CC3(F)F)c(C#N)c2)n1 (stereo partly drawn) [Example 228, 2-([33-difluoro-1-[(2S)-2-hydroxypropanoyl]piperidin-4-yl]oxy)-5-[2-([2-methoxy-4-[4-(oxetan-3-yl)piperazin-1-yl]phenyl]amino)pyrimidin-4-yl]benzonitrile]	< 100 nM	< 100 nM
